Assays:
[1] = system: AMARE; assay: Pre-emergence herbicidal action against AMARE; assay type: in vivo, Amaranthus retroflexus; conditions: Amaranthus retroflexus, 504 h, scored visually after 3 weeks vs untreated controls, 100% = plants have died, 0% = like control plants
In short: (§1)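 Visual rating at 3 weeks vs untreated pots; 0–100% scale, 100% = plants died. Treatment: aqueous WP/EC spray onto covering soil, 600–800 l/ha, 0.2% wetter, seeds in sandy loam.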

[2] = system: DIGSA; assay: Pre-emergence herbicidal action against DIGSA; assay type: in vivo, Digitaria sanguinalis; conditions: Digitaria sanguinalis, 504 h
In short: as §1

[3] = system: ECHCG; assay: Post-emergence herbicidal action against ECHCG; assay type: in vivo, Echinochloa crus-galli; conditions: Echinochloa crus-galli, 504 h, dosage 20 g/ha
In short: (§2)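 Weeds in sandy loam soil received a post-emergence spray at the one-leaf stage. Compounds were applied as WP or EC in water, 600 to 800 l/ha, with 0.2% wetting agent. Activity in % was judged visually after roughly 3 weeks against untreated plants.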

[4] = system: ALOMY; assay: Post-emergence herbicidal action against ALOMY; assay type: in vivo, Alopecurus myosuroides; conditions: Alopecurus myosuroides, 504 h, visual assessment about 3 weeks after treatment vs untreated controls; for pest or weed control at 20 g/ha: dosage 20 g/ha
In short: as §2

[5] = system: AMARE; assay: Post-emergence herbicidal action against AMARE; assay type: in vivo, Amaranthus retroflexus; conditions: Amaranthus retroflexus, 504 h, 20 g/ha, visual assessment about 3 weeks after treatment, 100% = plants have died, 0% = like control plants
In short: as §2

[6] = system: VERPE; assay: Post-emergence herbicidal action against VERPE; assay type: in vivo, Veronica persica; conditions: Veronica persica, 504 h, 20 g/ha
In short: as §2

[7] = system: VERPE; assay: Pre-emergence herbicidal action against VERPE; assay type: in vivo, Veronica persica; conditions: Veronica persica, 504 h; for pest or weed control at 80 g/ha: dosage 80 g/ha
In short: as §1

[8] = system: ABUTH; assay: Post-emergence herbicidal action against ABUTH; assay type: in vivo, Abutilon theophrasti; conditions: Abutilon theophrasti, 504 h, visual assessment about 3 weeks after treatment vs untreated controls; for pest or weed control at 20 g/ha: dosage 20 g/ha
In short: as §2

[9] = system: AVEFA; assay: Post-emergence herbicidal action against AVEFA; assay type: in vivo, Avena fatua; conditions: Avena fatua, 504 h, 20 g/ha, visual assessment about 3 weeks after treatment, 100% = plants have died, 0% = like control plants
In short: as §2

[10] = system: ALOMY; assay: Pre-emergence herbicidal action against ALOMY; assay type: in vivo, Alopecurus myosuroides; conditions: Alopecurus myosuroides, 504 h, pre-emergence; for pest or weed control at 80 g/ha: scored visually after 3 weeks vs untreated controls (100% = plants have died, 0% = like control plants)
In short: as §1

[11] = system: VIOTR; assay: Post-emergence herbicidal action against VIOTR; assay type: in vivo, Viola tricolor; conditions: Viola tricolor, 504 h
In short: as §2

[12] = system: POLCO; assay: Post-emergence herbicidal action against POLCO; assay type: in vivo, Polygonum convolvulus; conditions: Fallopia convolvulus, 504 h, dosage 20 g/ha
In short: as §2

[13] = system: MATIN; assay: Pre-emergence herbicidal action against MATIN; assay type: in vivo, Matricaria inodora; conditions: Tripleurospermum inodorum, 504 h; for pest or weed control at 80 g/ha: dosage 80 g/ha
In short: as §1

[14] = system: LOLRI; assay: Pre-emergence herbicidal action against LOLRI; assay type: in vivo, Lolium rigidum; conditions: Lolium rigidum, 504 h, 80 g/ha
In short: as §1

[15] = system: AVEFA; assay: Pre-emergence herbicidal action against AVEFA; assay type: in vivo, Avena fatua; conditions: Avena fatua, 504 h; 80 g/ha, pre-emergence
In short: as §1

[16] = system: STEME; assay: Pre-emergence herbicidal action against STEME; assay type: in vivo, Stellaria media; conditions: Stellaria media, 504 h
In short: as §1

[17] = system: MATIN; assay: Post-emergence herbicidal action against MATIN; assay type: in vivo, Matricaria inodora; conditions: Tripleurospermum inodorum, 504 h
In short: as §2

[18] = system: ABUTH; assay: Pre-emergence herbicidal action against ABUTH; assay type: in vivo, Abutilon theophrasti; conditions: Abutilon theophrasti, 504 h; for pest or weed control at 80 g/ha: scored visually after 3 weeks vs untreated controls (100% = plants have died, 0% = like control plants)
In short: as §1

[19] = system: HORMU; assay: Post-emergence herbicidal action against HORMU; assay type: in vivo, Hordeum murinum; conditions: Hordeum murinum, 504 h, dosage 20 g/ha
In short: as §2

[20] = system: PHBPU; assay: Pre-emergence herbicidal action against PHBPU; assay type: in vivo, Pharbitis purpurea; conditions: Ipomoea purpurea, 504 h, dosage 80 g/ha
In short: as §1

[21] = system: HORMU; assay: Pre-emergence herbicidal action against HORMU; assay type: in vivo, Hordeum murinum; conditions: Hordeum murinum, 504 h; 80 g/ha, pre-emergence
In short: as §1

[22] = system: ECHCG; assay: Pre-emergence herbicidal action against ECHCG; assay type: in vivo, Echinochloa crus-galli; conditions: Echinochloa crus-galli, 504 h, 80 g/ha
In short: as §1

[23] = system: STEME; assay: Post-emergence herbicidal action against STEME; assay type: in vivo, Stellaria media; conditions: Stellaria media, 504 h
In short: as §2

[24] = system: VIOTR; assay: Pre-emergence herbicidal action against VIOTR; assay type: in vivo, Viola tricolor; conditions: Viola tricolor, 504 h; for pest or weed control at 20 g/ha: dosage 20 g/ha; for pest or weed control at 80 g/ha: dosage 80 g/ha
In short: as §1

[25] = system: SETVI; assay: Post-emergence herbicidal action against SETVI; assay type: in vivo, Setaria viridis; conditions: Setaria viridis, 504 h; for pest or weed control at 20 g/ha: dosage 20 g/ha
In short: as §2

[26] = system: PHBPU; assay: Post-emergence herbicidal action against PHBPU; assay type: in vivo, Pharbitis purpurea; conditions: Ipomoea purpurea, 504 h, dosage 20 g/ha
In short: as §2

[27] = system: SETVI; assay: Pre-emergence herbicidal action against SETVI; assay type: in vivo, Setaria viridis; conditions: Setaria viridis, 504 h; for pest or weed control at 20 g/ha: dosage 20 g/ha; for pest or weed control at 80 g/ha: dosage 80 g/ha
In short: as §1

[28] = system: DIGSA; assay: Post-emergence herbicidal action against DIGSA; assay type: in vivo, Digitaria sanguinalis; conditions: Digitaria sanguinalis, 504 h
In short: as §2

[29] = system: LOLRI; assay: Post-emergence herbicidal action against LOLRI; assay type: in vivo, Lolium rigidum; conditions: Lolium rigidum, 504 h, dosage 20 g/ha
Method: Seeds of monocotyledonous and dicotyledonous weed and crop plants are laid out in sandy loam soil in wood-fiber pots, covered with soil and cultivated in a greenhouse under good growth conditions. 2 to 3 weeks after sowing, the test plants are treated at the one-leaf stage. The compounds of the invention, formulated in the form of wettable powders (WP) or as emulsion concentrates (EC), are then sprayed onto the green parts of the plants in the form of an aqueous suspension or emulsion at a water application rate equivalent to 600 to 800 l/ha, with addition of 0.2% wetting agent. After the test plants have been left to stand in the greenhouse under optimal growth conditions for about 3 weeks, the action of the preparations is assessed visually in comparison to untreated controls (herbicidal action in percent (%): 100% activity=the plants have died, 0% activity=like control plants). […] The tables below illustrate, in an illustrative manner, the post-emergence herbicidal action of the compounds of the invention, the herbicidal activity being stated in percent.

SMILES: Cc1c(C(=O)Nc2nnnn2C)ccc(C(F)(F)F)c1C(=O)NC1CC1 [Example 1-27]
- pest or weed control at 20 g/ha [1]: 100%
- pest or weed control at 80 g/ha [1]: 100%
- pest or weed control at 20 g/ha ([2]; dosage 20 g/ha): 100%
- pest or weed control at 80 g/ha ([2]; dosage 80 g/ha): 100%
- pest or weed control at 20 g/ha [3]: 80%
- pest or weed control at 20 g/ha [4]: 100%
- pest or weed control at 20 g/ha [5]: 100%
- pest or weed control at 20 g/ha [6]: 100%
- pest or weed control at 20 g/ha ([7]; dosage 20 g/ha): 80%
- pest or weed control at 80 g/ha [7]: 90%
- pest or weed control at 5 g/ha ([8]; dosage 5 g/ha): 100%
- pest or weed control at 20 g/ha [8]: 100%
- pest or weed control at 20 g/ha [9]: 100%
- pest or weed control at 80 g/ha [10]: 90%
- pest or weed control at 5 g/ha ([11]; 5 g/ha): 100%
- pest or weed control at 20 g/ha [11]: 100%
- pest or weed control at 20 g/ha [12]: 90%
- pest or weed control at 20 g/ha ([13]; dosage 20 g/ha): 100%
- pest or weed control at 80 g/ha [13]: 100%
- pest or weed control at 80 g/ha [14]: 80%
- pest or weed control at 80 g/ha [15]: 100%
- pest or weed control at 20 g/ha ([16]; dosage 20 g/ha): 90%
- pest or weed control at 80 g/ha ([16]; dosage 80 g/ha): 100%
- pest or weed control at 5 g/ha ([17]; dosage 5 g/ha): 80%
- pest or weed control at 20 g/ha ([17]; dosage 20 g/ha): 100%
- pest or weed control at 80 g/ha [18]: 100%
- pest or weed control at 20 g/ha ([18]; dosage 20 g/ha, scored visually after 3 weeks vs untreated controls, 100% = plants have died, 0% = like control plants, read-out: Pre-emergence action against ABUTH (herbicidal activity in percent)): 100%
- pest or weed control at 20 g/ha [19]: 80%
- pest or weed control at 80 g/ha [20]: 100%
- pest or weed control at 80 g/ha [21]: 80%
- pest or weed control at 80 g/ha [22]: 100%
- pest or weed control at 20 g/ha ([23]; 20 g/ha): 100%
- pest or weed control at 5 g/ha ([23]; dosage 5 g/ha): 100%
- pest or weed control at 20 g/ha [24]: 100%
- pest or weed control at 80 g/ha [24]: 100%
- pest or weed control at 5 g/ha ([25]; dosage 5 g/ha): 100%
- pest or weed control at 20 g/ha [25]: 100%
- pest or weed control at 20 g/ha [26]: 90%
- pest or weed control at 20 g/ha [27]: 100%
- pest or weed control at 80 g/ha [27]: 100%
- pest or weed control at 5 g/ha ([28]; 5 g/ha): 90%
- pest or weed control at 20 g/ha ([28]; 20 g/ha): 100%

SMILES: Cn1nnnc1NC(=O)c1ccc(Cl)c(C(=O)NC2CC2)c1Br [Example 1-351]
- pest or weed control at 20 g/ha [1]: 100%
- pest or weed control at 80 g/ha [1]: 100%
- pest or weed control at 20 g/ha [3]: 100%
- pest or weed control at 5 g/ha ([4]; dosage 5 g/ha): 90%
- pest or weed control at 20 g/ha [4]: 90%
- pest or weed control at 20 g/ha [5]: 100%
- pest or weed control at 80 g/ha [7]: 90%
- pest or weed control at 20 g/ha [29]: 80%
- pest or weed control at 20 g/ha [8]: 80%
- pest or weed control at 20 g/ha [9]: 80%
- pest or weed control at 80 g/ha [10]: 100%
- pest or weed control at 20 g/ha ([10]; 20 g/ha, scored visually after 3 weeks, 100% = plants have died, 0% = like control plants): 100%
- pest or weed control at 20 g/ha [11]: 80%
- pest or weed control at 80 g/ha [13]: 100%
- pest or weed control at 80 g/ha [15]: 100%
- pest or weed control at 80 g/ha [18]: 100%
- pest or weed control at 80 g/ha [22]: 100%
- pest or weed control at 20 g/ha [24]: 100%
- pest or weed control at 80 g/ha [24]: 100%
- pest or weed control at 20 g/ha [25]: 100%
- pest or weed control at 20 g/ha [27]: 100%
- pest or weed control at 80 g/ha [27]: 100%

From US12655116B2, “Substituted isophthalic acid diamides” (Bayer Aktiengesellschaft, priority 2020, dated 2026)
